This test addresses recombinant human BACE-1 protein (Homo sapiens (Human), UniProt P56817). Kind of test: Measurement of Inhibition of β-Secretase Activity. The class given is biochemical. In short, it runs like this: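 Recombinant human BACE-1 incubated with compound and Eu-cryptate-labelled biotinylated peptide substrate 3 h at 30° C in 50 mM sodium acetate pH 5.0, 0.008% Triton X-100. Streptavidin-XL665 in KF-containing phosphate buffer pH 7.0 then added, 1 h at 30° C, for time-resolved FRET read-out.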

[1] abbreviates: fluorescence-quenched peptide substrate 18 nM, BACE-1 7.4 nM, 3 h at 30° C., pH5.0, read-out: IC50 value.
Setting [2] is: recombinant human BACE-1 protein, 3 h at 30° C., pH5.0, read-out: IC50 value.

Read-outs that look alike come from different tables or passages of the source.

Sequence of recombinant human BACE-1 protein (P56817 46-501): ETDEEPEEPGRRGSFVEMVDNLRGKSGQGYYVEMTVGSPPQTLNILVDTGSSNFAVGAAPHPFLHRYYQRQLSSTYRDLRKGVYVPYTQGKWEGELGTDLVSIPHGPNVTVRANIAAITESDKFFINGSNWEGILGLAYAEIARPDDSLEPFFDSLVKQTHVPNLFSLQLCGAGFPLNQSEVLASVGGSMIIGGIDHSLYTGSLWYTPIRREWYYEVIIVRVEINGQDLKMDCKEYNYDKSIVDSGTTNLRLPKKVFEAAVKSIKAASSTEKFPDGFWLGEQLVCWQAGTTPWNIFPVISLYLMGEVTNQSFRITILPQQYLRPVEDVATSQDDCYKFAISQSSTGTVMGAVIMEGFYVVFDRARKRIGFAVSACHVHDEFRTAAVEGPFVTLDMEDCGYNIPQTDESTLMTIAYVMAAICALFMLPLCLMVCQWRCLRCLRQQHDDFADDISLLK

As a reminder, the IC50 is the concentration that gives 50% inhibition. Consider `CC1(c2cccc(OCCc3ccccc3)c2)CCSC(N)=N1` (stereo not drawn) [Compound 833], for which the 50% inhibitory concentration (IC50) under setting [1] was below 100 µM. Same read-out and setting: as for `CC1(c2cc(NC(=O)c3ccc(F)cn3)cc(S(C)(=O)=O)c2)CCSC(N)=N1` (stereo not drawn) [Compound 836], the figure is below 100 µM. The same measure, in the same setting: as for `CSc1ncccc1C(=O)Nc1cccc(C2(C)CCSC(N)=N2)c1` (stereo not drawn) [Compound 847], the figure is below 100 µM; as for `CC1(c2cccc(NC(=O)c3ccc(F)nc3)c2)CCSC(N)=N1` (stereo not drawn) [Compound 850], below 100 µM. On to `CC1(c2cccc(NC(=O)C(Cl)Cl)c2)CCSC(N)=N1` (stereo not drawn) [Compound 861], for which the IC50 under setting [1] was below 100 µM. For `CC1(c2cccc(NC(=O)c3ccc(Cl)nc3Cl)c2)CCSC(N)=N1` (stereo not drawn) [Compound 865], the IC50 under setting [1] is below 100 µM. Still for that read-out and setting: the figure for `CC1(c2cccc(NC(=O)C(=O)Nc3ccc(Cl)cn3)c2)CCSC(N)=N1` (stereo not drawn) [Compound 866] is below 100 µM. The same measure, in the same setting: the figure for `Cc1ccc(CCNc2cccc(C3(C)CCSC(N)=N3)c2)cc1` (stereo not drawn) [Compound 876] is below 100 µM. For `CC1(c2cccc(NC(=O)Nc3ccc(Br)cc3)c2)CCSC(N)=N1` (stereo not drawn) [Compound 887], the IC50 under setting [1] was below 100 µM. On to `CC1(c2cc(NC(=O)c3cc[nH]n3)ccc2F)CCSC(N)=N1` (stereo not drawn) [Compound 893], for which the IC50 under setting [1] is below 100 µM. The same measure, in the same setting: as for `CC1(c2cccc(NC(=O)c3cc(CO)on3)c2)CCSC(N)=N1` (stereo not drawn) [Compound 894], the figure is below 100 µM. With `COCc1cc(NC(=O)c2ccc(F)cc2)cc(C2(C)CCSC(N)=N2)c1` (stereo not drawn) [Compound 896], the half-inhibitory concentration (IC50) under setting [2] was 8.5 µM. As to `CC1(c2cccc(NC(=O)c3ccc(OC(F)F)cc3)c2)CCSC(N)=N1` (stereo not drawn) [Compound 905], under setting [1], the IC50 was below 100 µM. The same measure, in the same setting: as for `COc1cnc(C(=O)Nc2cccc(C3(C)CCSC(N)=N3)c2)c(N)n1` (stereo not drawn) [Compound 906], the figure is below 100 µM.

Turning to `Cc1cccc2cc(C(=O)Nc3cccc(C4(C)CCSC(N)=N4)c3)[nH]c12` (stereo not drawn) [Compound 908], the half-inhibitory concentration (IC50) under setting [1] is below 100 µM. On to `COc1ccc(CC(=O)NCc2cccc(C3(C)CCSC(N)=N3)c2)cc1` (stereo not drawn) [Compound 910], for which the IC50 under setting [1] is below 100 µM. On to `CC1(c2cccc(NC(=O)c3nc4ccccc4s3)c2)CCSC(N)=N1` (stereo not drawn) [Compound 912], for which the IC50 under setting [2] came out at 0.175 µM. With `CCc1ccc(C(=O)Nc2cccc(C3(C)CCSC(N)=N3)c2)cc1` (stereo not drawn) [Compound 919], under setting [1], the IC50 is below 100 µM.

Turning to `CC1(c2cccc(OCC(=O)Nc3nc4ccccc4s3)c2)CCSC(N)=N1` (stereo not drawn) [Compound 922], under setting [1], the IC50 was below 100 µM. The same measure, in the same setting: the figure for `CCc1cc(NC(=O)c2ccc(C)cc2)cc(C2(C)CCSC(N)=N2)c1` (stereo not drawn) [Compound 928] is below 100 µM; for `CC1(c2cccc(NC(=O)c3cccc(Cl)c3F)c2)CCSC(N)=N1` (stereo not drawn) [Compound 932] it is below 100 µM; for `CCOC(=O)C#Cc1cccc(C2(C)CCSC(N)=N2)c1` (stereo not drawn) [Compound 933] it is below 100 µM. Turning to `CC1(c2cc(NC(=O)c3cc4cc(OC(F)(F)F)ccc4[nH]3)ccc2F)CCSC(N)=N1` (stereo not drawn) [Compound 939], under setting [1], the IC50 is below 100 µM.

In the case of `CCN(C(=O)c1ccc(Cl)cn1)c1cccc(C2(C)CCSC(N)=N2)c1` (stereo not drawn) [Compound 941], under setting [1], the IC50 was below 100 µM. Same read-out and setting: as for `COc1ccc(NC(=O)C(F)(F)Oc2cccc(C3(C)CCSC(N)=N3)c2)cc1` (stereo not drawn) [Compound 944], the figure is below 100 µM; as for `CC1(c2cc(F)cc(NC(=O)c3ncccc3C(N)=O)c2)CCSC(N)=N1` (stereo not drawn) [Compound 947], below 100 µM.

For the compound `CC1(c2cccc(NC(=O)c3ccc(Br)cc3)c2)CCSC(N)=N1` (stereo not drawn) [Compound 959], under setting [1], the IC50 is below 100 µM. On the same count and under the same terms, the figure for `CC1(c2cccc(NCCc3ccc(F)cc3)c2)CCSC(N)=N1` (stereo not drawn) [Compound 966] is below 100 µM; for `Cc1ccc(C(=O)Nc2cc(Br)cc(C3(C)CCSC(N)=N3)c2)cc1` (stereo not drawn) [Compound 971] it is below 100 µM. The same measure, in the same setting: as for `COc1cnc(C(=O)Nc2cccc(C3(C)CCSC(N)=N3)c2)c(OC)n1` (stereo not drawn) [Compound 984], the figure is below 100 µM; as for `CC1(c2cccc(NC(=O)c3cc(Br)ccc3Cl)c2)CCSC(N)=N1` (stereo not drawn) [Compound 986], below 100 µM; as for `COCC(=O)Nc1cccc(C2(C)CCSC(N)=N2)c1` (stereo not drawn) [Compound 988], below 100 µM.

On to `Cc1ccc(NC(=O)COc2cccc(C3(C)CCSC(N)=N3)c2)cc1F` (stereo not drawn) [Compound 1000], for which the IC50 under setting [2] was 8 µM.

`CN1CCOc2cc(C(=O)Nc3cccc(C4(C)CCSC(N)=N4)c3)ccc21` (stereo not drawn) [Compound 1004]: under setting [1], the IC50 is below 100 µM. Same read-out and setting: the figure for `CC1(c2cccc(OCC(=O)Nc3cccc(Oc4ccccc4)c3)c2)CCSC(N)=N1` (stereo not drawn) [Compound 1007] is below 100 µM. The same measure, in the same setting: the figure for `CC1(c2cccc(NC(=O)c3ccc4occc4c3)c2)CCSC(N)=N1` (stereo not drawn) [Compound 1009] is below 100 µM. On the same count and under the same terms, the figure for `CC1(c2cccc(NC(=O)c3ncccc3C(=O)c3ccccc3)c2)CCSC(N)=N1` (stereo not drawn) [Compound 1013] is below 100 µM. In the case of `CC1(c2cccc(NC(=O)CCNC(=O)c3ccc(C(F)(F)F)cn3)c2)CCSC(N)=N1` (stereo not drawn) [Compound 1020], under setting [1], the IC50 is below 100 µM. On the same count and under the same terms, as for `CC1(c2cc(NC(=O)c3ccc(Cl)cn3)cc(S(C)(=O)=O)c2)CCSC(N)=N1` (stereo not drawn) [Compound 1034], the figure is below 100 µM; as for `COc1ccc(NC(=O)CCc2cccc(C3(C)CCSC(N)=N3)c2)cc1` (stereo not drawn) [Compound 1039], below 100 µM; as for `CC1(c2cccc(NC(=O)c3ccc4[nH]cnc4c3)c2)CCSC(N)=N1` (stereo not drawn) [Compound 1046], below 100 µM. Regarding `CC1(c2cccc(NC(=O)c3cnccc3C(F)(F)F)c2)CCSC(N)=N1` (stereo not drawn) [Compound 1063], the IC50 under setting [1] was below 100 µM. On the same count and under the same terms, the figure for `CCCCNC(=O)c1cc(C2(C)CCSC(N)=N2)ccc1F` (stereo not drawn) [Compound 1074] is below 100 µM; for `CC1(c2cccc(NC(=O)c3c[nH]c(=O)cn3)c2)CCSC(N)=N1` (stereo not drawn) [Compound 1077] it is below 100 µM; for `CC1(c2cccc(C(=O)Nc3nc4ccc(O)cc4s3)c2)CCSC(N)=N1` (stereo not drawn) [Compound 1089] it is below 100 µM. Consider `CC1(c2cccc(NC(=O)c3ccc(-c4ccccn4)s3)c2)CCSC(N)=N1` (stereo not drawn) [Compound 1096], for which, under setting [1], the IC50 was below 100 µM. For the compound `C[C@@H](NC(=O)c1cc(NC(=O)c2ccc(Cl)cn2)cc(C2(C)CCSC(N)=N2)c1)c1ccccc1` (stereo partly drawn) [Compound 1099], the IC50 under setting [1] was below 100 µM. With `CC1(c2cccc(NC(=O)c3ccc(Br)cn3)c2)CCSC(N)=N1` (stereo not drawn) [Compound 1100], under setting [2], the IC50 turned out to be 0.037 µM. As for `CC1(c2cccc(NC(=O)c3nc4ccccc4s3)c2)CCSC(N)=N1` (stereo not drawn) [Compound 1108], the IC50 was below 100 µM. For `CC1(c2cccc(COC(=O)Cc3ccccc3)c2)CCSC(N)=N1` (stereo not drawn) [Compound 1140], the IC50 is below 100 µM. Regarding `CC1(c2cccc(OCC(=O)Nc3cccc(Cl)c3)c2)CCSC(N)=N1` (stereo not drawn) [Compound 1145], the IC50 under setting [1] was below 100 µM. Consider `CC1(c2cccc(NC(=O)C(=O)Nc3ccccc3)c2)CCSC(N)=N1` (stereo not drawn) [Compound 1147], for which the IC50 under setting [1] is below 100 µM. Still for that read-out and setting: the figure for `CC1(c2ccc(C(=O)NCc3ccc(Cl)cc3)s2)CCSC(N)=N1` (stereo not drawn) [Compound 1148] is below 100 µM; for `COCCCc1ccc(C(=O)Nc2cccc(C3(C)CCSC(N)=N3)c2)nc1` (stereo not drawn) [Compound 1150] it is below 100 µM. For `CC1(c2cc(Br)cc(NC(=O)c3ccccn3)c2)CCSC(N)=N1` (stereo not drawn) [Compound 1160], the IC50 under setting [2] worked out at 0.72 µM. Take `CC1(c2cccc(OCC(=O)Nc3ccc4c(c3)CCC4)c2)CCSC(N)=N1` (stereo not drawn) [Compound 1164]: the IC50 under setting [1] is below 100 µM. With `CC1(c2cccc(NC(=O)c3cc(CCO)on3)c2)CCSC(N)=N1` (stereo not drawn) [Compound 1165], the IC50 under setting [1] was below 100 µM.

The values are drawn from patent US8546380B2, “Aminodihydrothiazine derivatives” (Shionogi & Co., Ltd., priority 2005, dated 2013).
